Assays:
[1] = biological target: T1, Recombinant His-tagged NAMPT (Homo sapiens, UniProt P43490); assay: Biochemical inhibition assay: NAMPT enzymatic reaction, NMN quantified by mass spectrometry; conditions: 33 nM NAMPT, 1 μM NAM, 100 μM PRPP, 2.5 mM ATP, 30 minutes at room temperature; read-out: Biochem IC50
T1 construct: His; host or cells: E. coli
Procedure, shortened: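 Reaction 30 min at room temperature with 1 μM NAM, 100 μM PRPP, 2.5 mM ATP (final), quenched with formic acid. NMN quantified by RapidFire electrospray MS, normalized to L-cystathionine; IC50 from percent inhibition versus DMSO.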

A2780 cells = assay: In-vitro cell proliferation assay (SRB, 72 hours); type: cell-based; conditions: Homo sapiens, sulforhodamine B (SRB) assay
Procedure, shortened: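 Viable cells measured by TCA fixation and SRB staining, absorbance 570 nm; % inhibition vs DMSO control after media-only background subtraction, interpolated between two bracketing concentrations.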

T1 sequence (P43490 whole entry): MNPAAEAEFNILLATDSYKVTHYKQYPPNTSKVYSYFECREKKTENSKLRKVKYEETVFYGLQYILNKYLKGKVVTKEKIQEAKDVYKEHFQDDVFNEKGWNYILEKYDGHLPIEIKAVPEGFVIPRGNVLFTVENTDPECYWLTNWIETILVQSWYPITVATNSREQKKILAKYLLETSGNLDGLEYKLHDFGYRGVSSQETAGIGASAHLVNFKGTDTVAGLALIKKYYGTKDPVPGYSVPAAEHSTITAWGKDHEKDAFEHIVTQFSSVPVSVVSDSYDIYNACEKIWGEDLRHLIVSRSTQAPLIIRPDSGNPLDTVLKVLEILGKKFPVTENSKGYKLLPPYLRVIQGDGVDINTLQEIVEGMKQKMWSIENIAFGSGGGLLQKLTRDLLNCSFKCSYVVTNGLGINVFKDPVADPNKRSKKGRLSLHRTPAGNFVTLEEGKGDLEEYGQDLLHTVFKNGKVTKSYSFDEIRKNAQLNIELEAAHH

Row | Compound | IC50 [1] | IC50 (A2780 cells)
1 | COc1cccc(OC)c1C(=O)N1CCC(CCCCNC(=O)c2cc3ccncc3s2)CC1 [N-(4-{1-[(2,6-dimethoxyphenyl)carbonyl]piperidin-4-yl}butyl)thieno[2,3-c]pyridine-2-carboxamide] | 5.6 nM | 1.2 nM
2 | O=C(NCCCCC1CCN(C(=O)c2cccc(Cl)c2Cl)CC1)c1cc2cnccc2[nH]1 [N-(4-{1-[(2,3-dichlorophenyl)carbonyl]piperidin-4-yl}butyl)-1H-pyrrolo[3,2-c]pyridine-2-carboxamide] | 31.2 nM | 3.2 nM
3 | O=C(NCCCCC1CCN(C(=O)c2ccc(OC(F)F)cc2)CC1)c1cc2cnccc2[nH]1 [N-[4-(1-{[4-(difluoromethoxy)phenyl]carbonyl}piperidin-4-yl)butyl]-1H-pyrrolo[3,2-c]pyridine-2-carboxamide] | 183 nM | 31.4 nM
4 | O=C(NCCCCC1CCN(C(=O)c2ccc(C(F)(F)F)cn2)CC1)c1cc2cnccc2[nH]1 [N-[4-(1-{[5-(trifluoromethyl)pyridin-2-yl]carbonyl}piperidin-4-yl)butyl]-1H-pyrrolo[3,2-c]pyridine-2-carboxamide] | 137 nM | 59.6 nM
5 | O=C(NCCCCC1CCN(C(=O)C2CCCCC2)CC1)c1ccc2nccn2c1 [N-[4-(1-cyclohexanecarbonylpiperidin-4-yl)butyl]imidazo[1,2-a]pyridine-6-carboxamide] | 18.1 nM | 0.9 nM
6 | O=C(NCCCCC1CCN(C(=O)c2cccc(Cl)c2)CC1)c1cc2ccncc2s1 [N-(4-{1-[(3-chlorophenyl)carbonyl]piperidin-4-yl}butyl)thieno[2,3-c]pyridine-2-carboxamide] | 33.4 nM | 45.5 nM
7 | O=C(NCCCCC1CCN(C(=O)c2cc3cc(F)ccc3[nH]2)CC1)c1cc2cnccc2[nH]1 [N-(4-{1-[(5-fluoro-1H-indol-2-yl)carbonyl]piperidin-4-yl}butyl)-1H-pyrrolo[3,2-c]pyridine-2-carboxamide] | 97.1 nM | 100 to 1000 nM
8 | Cc1ncsc1C(=O)N1CCC(CCCCNC(=O)c2cc3ccncc3s2)CC1 [N-(4-{1-[(4-methyl-1,3-thiazol-5-yl)carbonyl]piperidin-4-yl}butyl)thieno[2,3-c]pyridine-2-carboxamide] | 5.3 nM | 0.8 nM
9 | O=C(NCCCCC1CCN(C(=O)c2ccc(Cl)cc2)CC1)c1cc2ccncc2s1 [N-(4-{1-[(4-chlorophenyl)carbonyl]piperidin-4-yl}butyl)thieno[2,3-c]pyridine-2-carboxamide] | 22.8 nM | 1000 to 10000 nM
10 | COc1ccccc1C(=O)N1CCC(CCCCNC(=O)c2cc3cnccc3[nH]2)CC1 [N-(4-{1-[(2-methoxyphenyl)carbonyl]piperidin-4-yl}butyl)-1H-pyrrolo[3,2-c]pyridine-2-carboxamide] | 14.4 nM | 1.9 nM
11 | CCOc1cccc(C(=O)N2CCC(CCCCNC(=O)c3ccc4nccn4c3)CC2)c1 [N-(4-{1-[(3-ethoxyphenyl)carbonyl]piperidin-4-yl}butyl)imidazo[1,2-a]pyridine-6-carboxamide] | 10.2 nM | 13.2 nM
12 | O=C(NCCCCC1CCN(C(=O)c2cccc(F)c2)CC1)c1cc2ccncc2s1 [N-(4-{1-[(3-fluorophenyl)carbonyl]piperidin-4-yl}butyl)thieno[2,3-c]pyridine-2-carboxamide] | 7.7 nM | 7.4 nM
13 | O=C(NCCCCC1CCN(C(=O)c2cnc(C(F)(F)F)nc2)CC1)c1cc2ccncc2s1 [N-[4-(1-{[2-(trifluoromethyl)pyrimidin-5-yl]carbonyl}piperidin-4-yl)butyl]thieno[2,3-c]pyridine-2-carboxamide] | 158 nM | 100 to 1000 nM
14 | CCOc1ccccc1C(=O)N1CCC(CCCCNC(=O)c2cc3cnccc3[nH]2)CC1 [N-(4-{1-[(2-ethoxyphenyl)carbonyl]piperidin-4-yl}butyl)-1H-pyrrolo[3,2-c]pyridine-2-carboxamide] | 30.5 nM | 0.5 nM
15 | CC(C)c1ccc(C(=O)N2CCC(CCCCNC(=O)c3cc4cnccc4[nH]3)CC2)cn1 [N-[4-(1-{[6-(propan-2-yl)pyridin-3-yl]carbonyl}piperidin-4-yl)butyl]-1H-pyrrolo[3,2-c]pyridine-2-carboxamide] | 86.7 nM | 13.2 nM
16 | Cn1c(C(=O)N2CCC(CCCCNC(=O)c3cc4ccncc4s3)CC2)cc2ccccc21 [N-(4-{1-[(1-methyl-1H-indol-2-yl)carbonyl]piperidin-4-yl}butyl)thieno[2,3-c]pyridine-2-carboxamide] | 65 nM | 100 to 1000 nM
17 | COCc1ccc(C(=O)N2CCC(CCCCNC(=O)c3ccc4nccn4c3)CC2)nc1 [N-[4-(1-{[5-(methoxymethyl)pyridin-2-yl]carbonyl}piperidin-4-yl)butyl]imidazo[1,2-a]pyridine-6-carboxamide] | 57.4 nM | 67.1 nM
18 | CCOc1ccccc1C(=O)N1CCC(CCCCNC(=O)c2cc3ccncc3s2)CC1 [N-(4-{1-[(2-ethoxyphenyl)carbonyl]piperidin-4-yl}butyl)thieno[2,3-c]pyridine-2-carboxamide] | 4 nM | 0.6 nM
19 | O=C(NCCCCC1CCN(C(=O)c2ccc(C(F)(F)F)cc2)CC1)c1cc2ccncc2s1 [N-[4-(1-{[4-(trifluoromethyl)phenyl]carbonyl}piperidin-4-yl)butyl]thieno[2,3-c]pyridine-2-carboxamide] | 305 nM | 1000 nM
20 | Cc1ccc(C(=O)N2CCC(CCCCNC(=O)c3cc4ccncc4s3)CC2)cn1 [N-(4-{1-[(6-methylpyridin-3-yl)carbonyl]piperidin-4-yl}butyl)thieno[2,3-c]pyridine-2-carboxamide] | 69.7 nM | 100 to 1000 nM
21 | COc1ccc(C(=O)N2CCC(CCCCNC(=O)c3ccc4nccn4c3)CC2)cc1 [N-(4-{1-[(4-methoxyphenyl)carbonyl]piperidin-4-yl}butyl)imidazo[1,2-a]pyridine-6-carboxamide] | 23.2 nM | 57.6 nM
22 | Cn1cc(CC(=O)N2CCC(CCCCNC(=O)c3cc4cnccc4[nH]3)CC2)c2ccccc21 [N-(4-{1-[2-(1-methyl-1H-indol-3-yl)acetyl]piperidin-4-yl}butyl)-1H-pyrrolo[3,2-c]pyridine-2-carboxamide] | 9.1 nM | 11.2 nM
23 | O=C(NCCCCC1CCN(S(=O)(=O)c2cccc(Cl)c2)CC1)c1cc2cnccc2[nH]1 [N-(4-{1-[(3-chlorobenzene)sulfonyl]piperidin-4-yl}butyl)-1H-pyrrolo[3,2-c]pyridine-2-carboxamide] | 38.8 nM | 27.7 nM
24 | Cc1nc(C(=O)N2CCC(CCCCNC(=O)c3ccc4nccn4c3)CC2)cs1 [N-(4-{1-[(2-methyl-1,3-thiazol-4-yl)carbonyl]piperidin-4-yl}butyl)imidazo[1,2-a]pyridine-6-carboxamide] | 31.4 nM | 61.1 nM
25 | COc1cccc(OC)c1C(=O)N1CCC(CCCCNC(=O)c2ccc3nccn3c2)CC1 [N-(4-{1-[(2,6-dimethoxyphenyl)carbonyl]piperidin-4-yl}butyl)imidazo[1,2-a]pyridine-6-carboxamide] | 28.6 nM | 1 nM
26 | CC(C)c1ccc(C(=O)N2CCC(CCCCNC(=O)c3ccc4nccn4c3)CC2)nc1 [N-[4-(1-{[5-(propan-2-yl)pyridin-2-yl]carbonyl}piperidin-4-yl)butyl]imidazo[1,2-a]pyridine-6-carboxamide] | 56.7 nM | 52.9 nM
